In patent US20120082658A1, “Methods for the Treatment of Allergic Diseases” (VentiRx Pharmaceuticals, Inc., priority 2010, published 2012):
pEC50: −log10 of the molar value. Where two headings read alike, the source gives them in different places.

What was measured:
[1] = target: T1, TLR5 (Homo sapiens, UniProt O60602); experiment: HEK293 cells transfected with human TLR5, NF-κB driven reporter; format: cell-based; settings: concentration up to 25 uM
T1 construct: expressed in transfected cells; host or cells: HEK293
Experimental: (§1) FIG. 8 is two graphs depicting the potency and selectivity of VTX-378 for TLR8. The half-maximal effective concentration (EC50) for VTX-378 activation of TLR8 and TLR7 was assessed in peripheral blood mononuclear cells (PBMCs) by the amount of secreted TNFα (A) and by the activity of NF-κB (B) from 15 healthy donors and also in HEK293 cells transfected with various human TLRs.
(§2) Preclinical studies were performed with VTX-378, the active pharmaceutical ingredient in VTX-1463. The specificity of VTX-378 for human TLR8 relative to other TLRs was assessed in transfected Human Embryonic Kidney 293 (HEK293) cells engineered to express individual TLRs (2-9) via transfection, and assessed using an NF-κB driven reporter system. […] The pharmacologic effects of VTX-378 were characterized in vitro using isolated human peripheral blood mononuclear cells (PBMCs).

[2] = system: human peripheral blood mononuclear cells (PBMCs); experiment: Cytokine production in isolated human PBMCs; format: cell-based; settings: for pEC50: Homo sapiens, PBMC
Experimental: as §2

[3] = target: T2, TLR7 (Homo sapiens, UniProt Q9NYK1); experiment: HEK293 cells transfected with human TLR7, NF-κB driven reporter; format: cell-based; settings: read-out: EC50, activation of TLR7
T2 construct: expressed in transfected cells; host or cells: HEK293
T2 sequence (Q9NYK1 27-1049): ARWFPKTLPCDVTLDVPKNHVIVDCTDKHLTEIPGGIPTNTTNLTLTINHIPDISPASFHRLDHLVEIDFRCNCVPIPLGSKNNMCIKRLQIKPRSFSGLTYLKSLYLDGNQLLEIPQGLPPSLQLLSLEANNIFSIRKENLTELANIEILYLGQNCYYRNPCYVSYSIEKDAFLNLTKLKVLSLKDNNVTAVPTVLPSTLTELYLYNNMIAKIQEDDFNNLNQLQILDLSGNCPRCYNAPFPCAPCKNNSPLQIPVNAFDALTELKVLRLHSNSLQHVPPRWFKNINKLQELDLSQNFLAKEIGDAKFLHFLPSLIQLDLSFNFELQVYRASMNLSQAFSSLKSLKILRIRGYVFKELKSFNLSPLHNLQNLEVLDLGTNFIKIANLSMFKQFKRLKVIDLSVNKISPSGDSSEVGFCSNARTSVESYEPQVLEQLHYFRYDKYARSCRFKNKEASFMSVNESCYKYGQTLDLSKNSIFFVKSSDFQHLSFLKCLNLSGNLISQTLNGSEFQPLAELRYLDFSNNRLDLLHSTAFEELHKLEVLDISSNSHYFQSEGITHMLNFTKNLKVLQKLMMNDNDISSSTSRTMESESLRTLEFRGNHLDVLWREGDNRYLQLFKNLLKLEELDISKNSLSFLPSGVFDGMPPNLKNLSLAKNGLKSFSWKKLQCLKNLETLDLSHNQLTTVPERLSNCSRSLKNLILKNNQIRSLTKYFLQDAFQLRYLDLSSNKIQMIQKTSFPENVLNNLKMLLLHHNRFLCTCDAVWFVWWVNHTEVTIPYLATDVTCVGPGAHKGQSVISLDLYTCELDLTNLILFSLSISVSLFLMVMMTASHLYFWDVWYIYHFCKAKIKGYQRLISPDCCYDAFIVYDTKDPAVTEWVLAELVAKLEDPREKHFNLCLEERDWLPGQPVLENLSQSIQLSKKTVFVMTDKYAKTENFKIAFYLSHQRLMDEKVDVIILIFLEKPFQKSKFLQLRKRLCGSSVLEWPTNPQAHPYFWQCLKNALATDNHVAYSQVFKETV
Experimental: as §1, §2

[4] = system: ragweed-sensitized beagle dogs; experiment: Model of allergic rhinitis in ragweed-sensitized beagle dogs (acoustic rhinometry, nasal mediators); format: in vivo, beagle dog
Experimental: FIG. 1 is four graphs establishing that one day pretreatment with VTX-378 reduces nasal congestion.
The therapeutic activity of VTX-378 was assessed in a well characterized model of allergic rhinitis in ragweed-sensitized beagle dogs (FIGS. 1-7). Acoustic rhinometry (AcR) can be used to measure the direct effect on the nasal mucosa following nasal instillation of ragweed antigen.

[5] = target: T3, TLR2 (Homo sapiens, UniProt O60603); experiment: HEK293 cells transfected with human TLR2, NF-κB driven reporter; format: cell-based; settings: concentration up to 25 uM
T3 construct: expressed in transfected cells; host or cells: HEK293
Experimental: as §1, §2

[6] = target: T4, TLR6 (Homo sapiens, UniProt Q9Y2C9); experiment: HEK293 cells transfected with human TLR6, NF-κB driven reporter; format: cell-based; settings: concentration up to 25 uM
T4 construct: expressed in transfected cells; host or cells: HEK293
T4 sequence (Q9Y2C9 32-796): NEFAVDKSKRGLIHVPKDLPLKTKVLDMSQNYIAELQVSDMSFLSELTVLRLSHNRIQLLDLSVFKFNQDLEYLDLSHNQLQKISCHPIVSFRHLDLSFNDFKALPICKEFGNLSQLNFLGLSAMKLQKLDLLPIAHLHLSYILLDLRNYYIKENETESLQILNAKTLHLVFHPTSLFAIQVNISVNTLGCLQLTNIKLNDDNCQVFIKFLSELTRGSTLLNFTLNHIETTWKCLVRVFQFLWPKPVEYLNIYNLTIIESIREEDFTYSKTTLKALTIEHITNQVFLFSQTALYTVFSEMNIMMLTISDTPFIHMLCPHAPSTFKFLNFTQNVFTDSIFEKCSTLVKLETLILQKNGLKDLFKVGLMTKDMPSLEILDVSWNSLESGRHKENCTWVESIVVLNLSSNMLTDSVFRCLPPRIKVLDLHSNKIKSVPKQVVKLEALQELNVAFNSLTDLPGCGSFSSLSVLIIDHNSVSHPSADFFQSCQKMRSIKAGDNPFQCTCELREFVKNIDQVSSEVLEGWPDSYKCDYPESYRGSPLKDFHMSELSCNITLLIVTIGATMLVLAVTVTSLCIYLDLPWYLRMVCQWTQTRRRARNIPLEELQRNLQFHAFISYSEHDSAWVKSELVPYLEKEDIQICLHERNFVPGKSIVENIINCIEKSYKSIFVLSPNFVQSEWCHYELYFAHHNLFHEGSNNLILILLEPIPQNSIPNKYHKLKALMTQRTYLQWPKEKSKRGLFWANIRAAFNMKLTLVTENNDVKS
Experimental: as §1, §2

[7] = single dose 1000 ug intranasal one day prior to ragweed challenge

T3 sequence (O60603 21-784): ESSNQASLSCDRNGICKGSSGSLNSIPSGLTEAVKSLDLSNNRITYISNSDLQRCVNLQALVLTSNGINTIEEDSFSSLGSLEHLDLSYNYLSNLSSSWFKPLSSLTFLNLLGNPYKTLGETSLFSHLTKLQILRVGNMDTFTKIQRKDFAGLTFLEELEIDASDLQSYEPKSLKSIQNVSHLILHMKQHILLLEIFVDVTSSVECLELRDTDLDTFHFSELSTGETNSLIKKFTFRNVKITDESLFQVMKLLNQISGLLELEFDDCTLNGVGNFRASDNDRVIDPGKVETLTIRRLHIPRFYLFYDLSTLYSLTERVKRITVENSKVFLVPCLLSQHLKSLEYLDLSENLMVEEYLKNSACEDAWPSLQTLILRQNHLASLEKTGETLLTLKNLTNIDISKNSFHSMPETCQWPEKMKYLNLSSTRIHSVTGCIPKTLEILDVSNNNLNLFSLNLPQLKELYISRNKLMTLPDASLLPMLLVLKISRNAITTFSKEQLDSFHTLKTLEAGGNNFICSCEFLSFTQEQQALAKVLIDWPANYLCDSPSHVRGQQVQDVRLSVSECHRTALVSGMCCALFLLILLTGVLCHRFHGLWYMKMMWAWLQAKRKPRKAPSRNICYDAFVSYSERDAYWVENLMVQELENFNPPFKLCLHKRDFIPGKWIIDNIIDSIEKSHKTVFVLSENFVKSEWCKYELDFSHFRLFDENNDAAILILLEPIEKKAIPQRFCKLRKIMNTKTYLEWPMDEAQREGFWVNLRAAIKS
T1 sequence (O60602 21-858): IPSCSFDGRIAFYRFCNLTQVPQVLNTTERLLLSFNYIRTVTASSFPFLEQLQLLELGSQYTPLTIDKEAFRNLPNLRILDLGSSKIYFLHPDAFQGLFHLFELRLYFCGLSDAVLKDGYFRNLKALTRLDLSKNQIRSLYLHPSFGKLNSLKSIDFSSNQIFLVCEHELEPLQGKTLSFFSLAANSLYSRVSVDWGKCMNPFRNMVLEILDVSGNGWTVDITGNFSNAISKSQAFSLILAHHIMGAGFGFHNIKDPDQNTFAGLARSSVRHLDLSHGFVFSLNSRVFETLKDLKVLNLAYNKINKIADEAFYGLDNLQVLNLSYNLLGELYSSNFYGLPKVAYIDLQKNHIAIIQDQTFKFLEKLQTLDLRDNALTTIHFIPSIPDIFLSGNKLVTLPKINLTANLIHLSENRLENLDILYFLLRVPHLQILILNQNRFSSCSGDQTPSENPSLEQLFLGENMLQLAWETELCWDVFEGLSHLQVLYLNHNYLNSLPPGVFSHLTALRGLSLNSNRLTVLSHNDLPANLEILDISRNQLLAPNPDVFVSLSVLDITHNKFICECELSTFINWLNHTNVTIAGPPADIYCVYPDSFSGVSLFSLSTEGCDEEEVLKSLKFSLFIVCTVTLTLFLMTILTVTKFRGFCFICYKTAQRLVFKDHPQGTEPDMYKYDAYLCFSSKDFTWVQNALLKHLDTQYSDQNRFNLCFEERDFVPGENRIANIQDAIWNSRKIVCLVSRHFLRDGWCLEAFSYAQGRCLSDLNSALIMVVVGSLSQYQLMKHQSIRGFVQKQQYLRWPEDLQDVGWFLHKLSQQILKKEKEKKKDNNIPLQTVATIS

activity on TLR5 [1]: no detectable activity
pEC50 [3]: ~5.70
activity on TLR2 [5]: no detectable activity
activity on TLR6 [6]: no detectable activity
Compound: CCCN(CCC)C(=O)C1=Cc2ccc(-c3ccc(C(=O)N4CCCC4)cc3)cc2N=C(N)C1 [VTX-378]
pEC50 ([2]; analyte IL-10, read-out: EC50, IL-10 production): 6.92
pEC50 ([2]; analyte IL-12p40, read-out: EC50, IL-12p40 production): 6.64
pEC50 ([2]; analyte IL-12p70, read-out: EC50, IL-12p70 production): 6.66
Mean Mediator Level ± SEM, IL-10 ([2]; VTX-378 1.6 uM): 72 ± 29 pg/mL
Mean Mediator Level ± SEM, IL-12p70 ([2]; VTX-378 1.6 uM): 38 ± 10 pg/mL
Mean Mediator Level ± SEM, IL-12p40 ([2]; VTX-378 1.6 uM, *p < 0.05 to Control): 140 ± 32* pg/mL
production of Th-1 cytokines and chemokines including IL-12, IFN, MCP-1 and MIP-1β ([2]; incubation with isolated human PBMCs): stimulated PBMCs to produce
production of allergic mediators (nasal histamine, leukotrienes C4/D4/E4, prostaglandin D2, prostaglandin E2) ([4]; dose not given): significantly reduced
allergic response to antigen challenge (acoustic rhinometry) ([4]; intranasal 100-1000 mcg): dose-dependent, statistically significant reduction
level of nasal histamine ([4]; single dose 100 ug): less significant
level of nasal leukotrienes C4/D4/E4 ([4]; single dose 100 ug): less significant
level of nasal prostaglandin D2 ([4]; single dose 100 ug): less significant
level of nasal prostaglandin E2 ([4]; single dose 100 ug): less significant
allergic responses (nasal congestion) ([4]; single dose 100 ug, 500 ug and 1000 ug intranasal one day prior to ragweed challenge): significantly attenuated allergic responses
level of nasal histamine [4, 7]: significantly reduced
level of nasal leukotrienes C4/D4/E4 [4, 7]: significantly reduced
level of nasal prostaglandin D2 [4, 7]: significantly reduced
level of nasal prostaglandin E2 [4, 7]: significantly reduced
attenuation of nasal congestion ([4]; single dose of 1000 mcg intranasal before ragweed challenge): 56.5%±10.0
allergic responses (nasal congestion) ([4]; two 250 ug doses intranasal one day and four-day prior to ragweed challenge): significantly attenuated allergic responses
allergic responses (nasal congestion) ([4]; two 1000 ug doses intranasal, one day and four-day or one day and eight-day prior to ragweed challenge): significantly attenuated allergic responses
improvement of nasal congestion ([4]; two doses of 1000 mcg separated by 4 days): 65.4%±10.3
improvement of nasal congestion ([4]; two doses of 1000 mcg separated by 7 days): 71.9%±7.7
